Measurements published in US20060173041A1, “Sulphonylpiperidine derivatives containing an aryl or heteroaryl group for use as matrix metalloproteinase inhibitors” (priority 2002, published 2006).

Target: T1, proTNFα convertase enzyme (TACE) (Homo sapiens, UniProt P78536)
T1 construct: partially purified, isolated enzyme assay, the enzyme being obtained from the membranes of THP-1; endogenous in cells; host or cells: THP-1 cell membranes, partially purified as in Mohler et al. (1994) Nature 370:218-220
Assay: partially purified isolated enzyme assay for proTNFα convertase (TACE)
Type: biochemical
Details: 10 μM of compound; enzyme from membranes of THP-1; 26° C. for 4 hours
Protocol: Recombinant human proMMP13 may be expressed and purified as described by Knauper et al. [V. Knauper et al., (1996) The Biochemical Journal 271:1544-1550 (1996)]. […] Activity is determined by measuring the fluorescence at λex 328 nm and λem 393 nm. Percent inhibition may be calculated as follows: % Inhibition is equal to the [Fluorescenceplus inhibitor−Fluorescencebackground] divided by the [Fluorescenceminus inhibitor−Fluorescencebackground].
The ability of the compounds to inhibit proTNFα convertase enzyme (TACE) has been assessed using a partially purified, isolated enzyme assay, the enzyme being obtained from the membranes of THP-1 as described by K. M. Mohler et al., (1994) Nature 370:218-220. The purified enzyme activity and inhibition thereof was determined by incubating the partially purified enzyme in the presence or absence of test compounds using the substrate 4′,5′-Dimethoxy-fluoresceinyl Ser.Pro.Leu.Ala.Gln.Ala.Val.Arg.Ser.Ser.Ser.Arg.Cys(4-(3-succinimid-1-yl)fluorescein)-NH2 in assay buffer (50 mM Tris HCl, pH 7.4 containing 0.1% (w/v) Triton X-100 and 2 mM CaCl2), at 26° C. for 4 hours. The amount of inhibition was determined as for MMP13 except λex 485 nm and λem 538 nm were used. […]

T1 sequence (P78536 215-824): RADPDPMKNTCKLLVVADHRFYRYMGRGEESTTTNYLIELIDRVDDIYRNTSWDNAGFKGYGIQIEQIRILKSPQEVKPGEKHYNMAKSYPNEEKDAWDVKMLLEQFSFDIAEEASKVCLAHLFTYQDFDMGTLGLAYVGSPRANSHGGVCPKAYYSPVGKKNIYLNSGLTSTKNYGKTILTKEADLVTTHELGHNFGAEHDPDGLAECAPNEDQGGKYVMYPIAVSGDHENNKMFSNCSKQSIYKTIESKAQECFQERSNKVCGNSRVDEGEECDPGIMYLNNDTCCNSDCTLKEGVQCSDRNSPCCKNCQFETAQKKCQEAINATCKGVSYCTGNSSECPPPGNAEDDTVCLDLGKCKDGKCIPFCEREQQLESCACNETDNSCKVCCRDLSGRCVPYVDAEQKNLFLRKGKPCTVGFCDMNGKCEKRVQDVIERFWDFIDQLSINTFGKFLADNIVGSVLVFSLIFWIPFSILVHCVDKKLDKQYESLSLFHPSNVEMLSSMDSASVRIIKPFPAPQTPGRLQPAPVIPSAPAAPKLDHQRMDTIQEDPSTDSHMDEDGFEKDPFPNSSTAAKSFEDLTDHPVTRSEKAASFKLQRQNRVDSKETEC

Row | inhibition at 10 µM [%] | SMILES
1 | 81 | CC(C)Oc1ccccc1OC1CCN(S(=O)(=O)CC(c2ccccc2)N(O)C=O)CC1 (racemic) [Example 8, (R/S)-hydroxy(2-{[4-(2-isopropoxyphenoxy)piperidin-1-yl]sulphonyl}-1-phenylethyl)formamide]
2 | 76 | CC(C)NC(=O)c1ccccc1OC1CCN(S(=O)(=O)CC(c2ccccc2)N(O)C=O)CC1 (racemic) [Example 14]
